In US9340577B2, “HLA binding motifs and peptides and their uses” (priority 1992, dated 2016) one finds IC50 data, which are given here for 19 molecules.

Like-named read-outs stand apart in the source and are kept apart here. No end group written: not given here.

What all share (experiment): biochemical
Test [1] addresses DR1 (DRB1*0101) (Homo sapiens, UniProt P01903+P01911, A100R/D57E/F55L/F60I/F76Y/I96L/L162R/M171V/P40L/Q125E/R42F/V115G/Y59C). Format: binding.
The target in test [2] is DR7 (DRB1*0701) (Homo sapiens, UniProt P01903+P01911, A100R/A102G/A103Q/D57E/D86V/E43K/F76Y/K127E/L162R/M171V/P40G/Q125H/Q99D/R33Q/R42Y/R54Q/S133A/S66F/T210M/V115G/Y107V/Y59L/Y89S). Format: binding.
Test [3] deals with DRB1*0405 (Homo sapiens, UniProt P01903+P01911, A100R/A169T/D86S/F76Y/I96L/K127E/L162R/M171V/N62H/P40V/Q125Y/R42H/S133A/S149N/S66Y/V115G/V209L/W38E). Format: binding.
Test [4] concerns the target DRB1*0802 (Homo sapiens, UniProt P01903+P01911, A100R/A103L/A169T/F76Y/H45Y/I96F/K41T/L162R/M171V/P40S/Q125H/Q178H/Q39Y/Q99D/R218S/R42G/S66Y/V115G/W38E). Format: binding.
Test [5] concerns the target DRB1*0901 (Homo sapiens, UniProt P01903+P01911, A100R/A103E/D57H/D86V/F55Y/F60I/F76Y/I96F/K127E/L162R/M171V/P40D/Q125H/Q99R/R33Q/R42F/S133A/S66N/T210M/V115G/W38K/Y107V/Y59G/Y89S). Format: binding.
Test [6] has as its target DRB1*1302 (Homo sapiens, UniProt P01903+P01911, A100E/A169T/K41T/L162R/M171V/P40S/Q125H/Q178H/Q39Y/Q99D/R42S/S66N/T262R/V115G/W38E/Y61H). Format: binding.
Test [7] has as its target DRB1*1501 (Homo sapiens, UniProt P01903+P01911). Format: binding.
For test [8], the target named is DRB4*0101 (Homo sapiens, UniProt P01903+P13762, G164S). Format: binding.
For test [9], the target named is DRB1*1101 (Homo sapiens, UniProt P01903+P01911, A100R/A169T/A87E/I96F/K41T/L162R/M171V/P40S/Q125H/Q178H/Q39Y/Q99D/R42S/S66Y/T262R/V115G/W38E).
Sequence of DRB1*1101 (P01903 26-254 limits assumed, other chains not shown): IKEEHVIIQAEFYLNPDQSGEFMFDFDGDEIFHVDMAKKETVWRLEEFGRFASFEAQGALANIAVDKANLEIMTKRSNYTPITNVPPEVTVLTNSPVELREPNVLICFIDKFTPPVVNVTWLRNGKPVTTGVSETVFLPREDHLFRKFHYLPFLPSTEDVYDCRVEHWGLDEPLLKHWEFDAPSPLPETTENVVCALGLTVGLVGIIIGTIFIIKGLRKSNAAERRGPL
The target in test [10] is DRB5*0101 (Homo sapiens, UniProt P01903+Q30154). The conditions noted are these: Binding affinity DRB5 *0101.
In test [11] the target is DR4w4 (DRB1*0401) (Homo sapiens, UniProt P01903+P01911, A100K/A169T/F76Y/I96L/K127E/L162R/M171V/N62H/P40V/Q125Y/R42H/S133A/S149N/S66Y/V115G/V209L/W38E). Format: binding.

Sequence of DRB1*1302 (P01903 26-254 limits assumed, other chains not shown): as above

Consider `CC(C)[C@H](NC(=O)[C@H](CO)NC(=O)[C@@H](NC(=O)[C@@H](N)[C@@H](C)O)C(C)C)C(=O)NCC(=O)N[C@H](C(=O)N[C@@H](C)C(=O)N[C@@H](CCCCN)C(=O)N[C@H](C(=O)N[C@@H](Cc1ccc(O)cc1)C(=O)NCC(=O)N[C@@H](CCC(N)=O)C(=O)N[C@H](C(=O)N[C@@H](CO)C(=O)N[C@@H](C)C(=O)O)[C@@H](C)O)[C@@H](C)O)[C@@H](C)O` [Peptide 89.0163], for which the concentration for half-maximal inhibition (IC50) was more than 20 µM in test [1]; more than 20 µM in test [2]; 2.33 µM in [3]; more than 20 µM in test [4]; more than 20 µM in test [5]; more than 20 µM in [6]. In addition, the IC50 in [7] is 8.71 µM; in [8], 0.229 µM; in test [9] (Binding affinity DRB1 *1101), more than 20 µM; in [10] it was more than 20 µM.
DCKWGVLILALLRYK [Peptide 89.0026]: the IC50 in test [11] was found to be 1.09 µM; in test [2], 7.36 µM; in test [3], 1.34 µM; in test [4] it was 1.8 µM; in test [5], 1 µM; in test [6], 0.786 µM. Besides, the results for the IC50 in [7], in test [9] (Binding affinity DRB1 *1101) and in test [10] were 0.41 µM, 0.389 µM and 1.12 µM, respectively.
Regarding DSDIAYYYAQLADSN [Peptide 89.0071], the IC50 in test [1] is 0.198 µM; in test [2] it was 4.13 µM; in [3], 6.03 µM; in [5], 2.34 µM; in test [6], more than 20 µM; in test [7], 0.013 µM. Moreover, the half-maximal inhibitory concentration (IC50) was 0.978 µM in test [8], 9.14 µM in [9] (Binding affinity DRB1 *1101) and more than 20 µM in test [10].
DWCIIGMGVTPSVAE [Peptide 89.0096]: the 50% inhibitory concentration (IC50) in test [1] is more than 20 µM; in [2] it was 2.64 µM; in test [3] it was more than 20 µM; in [4] it was more than 20 µM; in [5] it was more than 20 µM; in [6] it was 4.34 µM. Further, the half-maximal inhibitory concentration (IC50) in [7] is 8.31 µM; in [8], 0.19 µM; in [9] (Binding affinity DRB1 *1101), more than 20 µM; in test [10], more than 20 µM.
On to FAGIVTKLPTANNTT [Peptide 89.0175], for which the concentration for half-maximal inhibition (IC50) is 1.28 µM in test [2]; 5.87 µM in [3]; 1.56 µM in test [4]; more than 20 µM in test [5]; 2.55 µM in test [7]; 1.2 µM in [8]. The IC50 in test [9] (Binding affinity DRB1 *1101) amounted to 7.63 µM.
For the molecule FIHFIQGAVISFVNS [Peptide 89.0036], the IC50 was 1.22 µM in [3]; 3.42 µM in test [4]; 0.137 µM in test [5]; 0.097 µM in test [6]; 0.677 µM in test [7]; 0.13 µM in test [8]. For the same molecule, the concentration for half-maximal inhibition (IC50) was 4.33 µM in test [9] (Binding affinity DRB1 *1101) and 6.02 µM in test [10].
FLSYFKLFLQGTPKH [Peptide 89.0132]: the IC50 in [1] was more than 20 µM; in test [2] it was more than 20 µM; in [3] it was 7.81 µM; in [4], more than 20 µM; in test [6], 1.3 µM; in test [7] it was more than 20 µM. The values for the IC50 in [8], in test [9] (Binding affinity DRB1 *1101) and in test [10] were 0.0087 µM, more than 20 µM and more than 20 µM, respectively.
Consider GQVIVFPESVFSSDE [Peptide 89.0173], for which the IC50 in test [2] was more than 20 µM; in test [3], more than 20 µM; in test [4], 2.12 µM; in test [5] it was more than 20 µM; in test [6], more than 20 µM; in test [7], more than 20 µM. Also, the 50% inhibitory concentration (IC50) in [8], in test [9] (Binding affinity DRB1 *1101) and in [10] was more than 20 µM each time.
Turning to LIRMECALLYTAKQM [Peptide 89.0179], the IC50 in test [1] was 0.998 µM; in test [2], 7.47 µM; in test [3], more than 20 µM; in test [4], more than 20 µM; in test [5], more than 20 µM; in [6], more than 20 µM. Moreover, the concentration for half-maximal inhibition (IC50) in test [7], in [8], in test [9] (Binding affinity DRB1 *1101) and in test [10] was more than 20 µM throughout.
Turning to LLQLKCPPILLTSNI [Peptide 89.0091], the half-maximal inhibitory concentration (IC50) in [1] was 0.037 µM; in test [11], 1.44 µM; in [2], 0.613 µM; in test [3], more than 20 µM; in [4], 7.29 µM; in test [5] it was more than 20 µM. The IC50 was 0.122 µM in test [8], more than 20 µM in test [9] (Binding affinity DRB1 *1101) and more than 20 µM in test [10].
For LMQLKCPPLLITSNI [Peptide 89.0057], the IC50 in test [1] came to 0.214 µM; in test [3] it was 1.48 µM; in test [4], 2.8 µM; in [5], 5.08 µM; in [6], 0.123 µM; in [7], 0.16 µM. Also, the concentration for half-maximal inhibition (IC50) in test [8] is 0.068 µM; in test [10] it was more than 20 µM.
Take MVQVEEQQTTLSCNG [Peptide 89.0040]: the concentration for half-maximal inhibition (IC50) in test [11] was 0.34 µM; in [2], more than 20 µM; in test [3], more than 20 µM; in test [4], more than 20 µM; in test [5], more than 20 µM; in test [6], more than 20 µM. The half-maximal inhibitory concentration (IC50) in test [7], in test [9] (Binding affinity DRB1 *1101) and in test [10] was more than 20 µM throughout.
On to PEWIEQQTVLQHSFD [Peptide 89.0105], for which the IC50 in test [2] came to 6.21 µM; in test [3] it was 5.59 µM; in [6], 1.31 µM; in test [7], 11.3 µM; in [8] it was 0.98 µM.
In the case of PMAVSKAKACQAIEL [Peptide 90.0013], the half-maximal inhibitory concentration (IC50) in [1] is 0.089 µM; in test [3], more than 20 µM; in [6] it was 0.535 µM; in [7], 16.6 µM; in test [8] it was 1.59 µM; in test [9] (Binding affinity DRB1 *1101), 1.55 µM. Also, in test [10], the 50% inhibitory concentration (IC50) amounted to 12.8 µM.
In the case of PMCMMIEPPKLRSTA [Peptide 90.0034], the IC50 in test [1] came to 0.037 µM; in [11] it was 0.366 µM; in test [2], 0.369 µM; in [3], 2.11 µM; in test [4], 4.33 µM; in test [5] it was 11.3 µM. Also, the half-inhibitory concentration (IC50) in test [6] turned out to be 1.58 µM; in [7], 3.34 µM; in test [9] (Binding affinity DRB1 *1101) it was 2.04 µM; in test [10], 0.271 µM.
As to PPLLITTNINPMLDA [Peptide 89.0139], the IC50 in [1] is 1.22 µM; in test [11], 0.623 µM; in test [2] it was 7.54 µM; in test [3], 3.39 µM; in test [4], 7.65 µM; in test [5], more than 20 µM. The figures for the IC50 in [6], in test [7] and in test [9] were more than 20 µM, 4.78 µM and 7.37 µM, respectively.
In the case of TPEWIDRLTVLQHSF [Peptide 89.0069], the half-maximal inhibitory concentration (IC50) in test [1] is 14.6 µM; in test [2] it was 5.21 µM; in test [3] it was 0.987 µM; in test [4], 0.275 µM; in [5], more than 20 µM; in [6], 8.86 µM. Also, the IC50 in [7] was 3.83 µM; in test [8], 0.122 µM; in test [10], more than 20 µM.
Regarding TPEWIEQQTVLQHSF [Peptide 89.0104], the IC50 in [1] is 0.949 µM; in test [2], more than 20 µM; in [3], 2.88 µM; in [4], 14.1 µM; in [5] it was more than 20 µM; in test [6] it was more than 20 µM. In addition, the IC50 was 13 µM in test [7], more than 20 µM in test [8], more than 20 µM in test [9] (Binding affinity DRB1 *1101) and 5.46 µM in test [10].
With WCIIGMGVTPSVAEG [Peptide 89.0097], the IC50 in test [1] is more than 20 µM; in [11], more than 20 µM; in test [2], 3.55 µM; in test [3] it was more than 20 µM; in test [4] it was more than 20 µM; in [5], more than 20 µM. In addition, the IC50 in test [6] was 2.09 µM; in [7], more than 20 µM; in test [9] (Binding affinity DRB1 *1101), more than 20 µM; in test [10], more than 20 µM.
